Activity calls are given as the source filed them. How the calls were made is not given here.

Data on 90 compounds can be found in PubChem BioAssay AID489023 (Sanford-Burnham Center for Chemical Genomics, 2010).

The subject of this test is 697B cells, BCR-induced NF-kB luciferase reporter luminescence. The test is described as follows: B-cell receptor NF-kB reporter inhibition – 697B cells, luciferase luminescence, dose response (AID 489023).

What is called IC50 is the point on the concentration scale where inhibition reaches its midpoint. Turning to `CCCN1C(=O)/C(=C/c2c(N3CCNC(=O)C3CC(=O)OCC)nc3c(C)cccn3c2=O)SC1=S` (stereo not given), the IC50 was 5.89 µM.

For the compound `COc1cccc(/C=C2/SC(=S)N(CCCC(=O)Nc3ccc(O)cc3)C2=O)c1`, the IC50 is 1.49 µM.

Regarding `COc1ccc(C(=O)Nc2cccc(NC(=O)c3ccc(OC)c(OC)c3)n2)cc1OC`, the IC50 was 3.64 µM.

In the case of `COc1ccc(-c2n(Cc3ccccc3)c3ccccc3[n+]2Cc2ccccc2)cc1`, the IC50 was > 80 µM (inactive).

Take `CCC(C)(C)c1ccc(OCCCC[n+]2ccccc2)c(C(C)(C)CC)c1`: the IC50 was 18.2 µM.

As for `COc1ccc(C(=O)Nc2ccccc2C(=O)NCc2ccco2)cc1OC`, the IC50 was > 80 µM (inactive).

`COc1ccc(NC(=O)c2cc3c(Cl)nc4ccccc4c3s2)cc1OC`: the IC50 was 60.3 µM (inactive).

On to `Cc1ccccc1Nc1nc(Cl)c(C=O)s1`, for which the IC50 was > 80 µM (inactive).

As for `CC(C)C(c1nnnn1Cc1ccccc1)N(Cc1ccco1)Cc1cccs1` (stereo not given), the IC50 is > 80 µM (inactive).

Consider `Cc1ccc(-c2cn(-c3ccccc3)c3[n+]2CCCS3)cc1`, for which the IC50 is > 80 µM (inactive).

`Cc1ccc(/C=C2\SC(=S)N(CCCC(=O)Nc3cc(C)on3)C2=O)cc1`: the IC50 was 34.3 µM (inactive).

For the compound `O=C(O)CCSc1nc2ccccc2s1`, the IC50 is 10.1 µM.

`COc1ccc(-c2nc(CSCC(=O)NCc3ccco3)c(C)o2)cc1`: the IC50 is 9.47 µM.

Turning to `Cc1c(CCC(=O)N2CCC(C(=O)O)CC2)c(=O)oc2cc3oc4c(c3cc12)CCCC4`, the IC50 is 14 µM.

Consider `N=c1c2c(n(Cc3ccc(Cl)cc3Cl)c3c1CCC3)CCCC2`, for which the IC50 is 40.3 µM (inactive).

Regarding `COc1ccc(C(C(=O)NC2CCCCC2)N(C(=O)CCl)c2ccc(Cl)cc2)cc1` (stereo not given), the IC50 was 0.85 µM.

As to `Cc1cc(OCC(=O)Nc2ccc(CCO)cc2)c2c(C)c(C)c(=O)oc2c1`, the IC50 is > 80 µM (inactive).

For the compound `CCOc1ccc(-n2c(SCC(=O)Nc3ccc4c(c3)OCCO4)nc3c(c2=O)SCC3)cc1`, the IC50 is 11.7 µM.

Take `Cc1ccc(NC(=O)C2CCC(CNc3c(N4CCC(C)CC4)c(=O)c3=O)CC2)cc1F` (stereo not given): the IC50 was > 80 µM (inactive).

`Cc1cccn2c(=O)c3cc(C(=O)NC4CCCCC4)c(=N)n(CCN4CCOCC4)c3nc12`: the IC50 is > 80 µM (inactive).

On to `CCN(CC)c1ccc(/C=N/N=C(c2ccccc2)c2ccccc2)c(O)c1`, for which the IC50 is > 80 µM (inactive).

For `COc1cc(-c2nc(C(=O)NCC3CCCO3)cc3c2[nH]c2ccccc23)cc(OC)c1OC` (stereo not given), the IC50 was 12.2 µM.

In the case of `CN(C)CCCN=Cc1c(-c2ccccc2)[nH]n(-c2nc3ccccc3s2)c1=O`, the IC50 was 5.81 µM.

Consider `O=C(CCCN1C(=O)S/C(=C\C=C\c2ccccc2)C1=O)Nc1ccc(O)cc1`, for which the half-inhibitory concentration (IC50) was 2.99 µM.

Consider `Nc1ccc(-c2cc3ccccc3oc2=O)cc1`, for which the IC50 was 0.39 µM.

Regarding `CCn1c(=O)c2cc(C(=O)NC(C)C)sc2c2ccccc21`, the IC50 is > 80 µM (inactive).

As for `CC1=CC(C)(C)Nc2ccc(OC(=O)CN3C(=O)c4ccccc4C3=O)cc21`, the IC50 was 4.73 µM.

As for `Cc1cc(N(C)C)ccc1N=Nc1ccc(N)cc1`, the IC50 is 61.1 µM (inactive).

On to `COc1ccc(-n2c(-c3ccc(Cl)cc3)c[n+]3c2CCc2ccccc2-3)cc1`, for which the IC50 is > 80 µM (inactive).

Consider `Cc1cc(C)c(S(=O)(=O)NCc2ccncc2)c(C)c1`, for which the IC50 is > 80 µM (inactive).

`CCc1ccc(-c2nc(CSCC(=O)NC3CC3)c(C)o2)cc1`: the IC50 is 0.41 µM.

Regarding `Cn1c(=O)n(C)c2cc(C(=O)Nc3ccc4c(c3)OCO4)ccc21`, the IC50 was 35.2 µM (inactive).

As for `CCc1cccc(NC(=O)c2ccc(CNc3c(N4CCCC4)c(=O)c3=O)cc2)c1`, the IC50 is > 80 µM (inactive).

Turning to `O=C(CCCN1C(=O)S/C(=C\c2ccccc2)C1=O)NNC(=O)c1ccccc1O`, the IC50 was 1.64 µM.

Consider `ClCc1nnc(-c2ccccc2)o1`, for which the IC50 is 12.7 µM.

Take `COc1ccc(C(=O)N/N=C/c2ccc(OC)c(CN3CCCc4ccccc43)c2)cc1`: the IC50 is > 80 µM (inactive).

In the case of `O=C(c1cc2nc(-c3ccccc3)cc(-c3ccccc3)n2n1)N1CCN(C(=O)c2ccco2)CC1`, the IC50 was 8.73 µM.

As for `C(=N\Nc1nc(Nc2ccccc2)nc(Nc2ccccc2)n1)/c1cccnc1`, the IC50 was > 80 µM (inactive).

With `COc1ccc(-c2nsc(SCC(=O)Nc3cc(C)on3)n2)cc1`, the IC50 was 46.3 µM (inactive).

For the compound `CC(=O)Nc1ccc(Nc2nc(-c3sc(NC(C)=O)nc3C)cs2)cc1`, the IC50 was 2.12 µM.

Regarding `O=C(CSCCO)Nc1ccc(C23CC4CC(CC(C4)C2)C3)cc1`, the IC50 is > 80 µM (inactive).

As for `Cc1c(CCC(=O)O)c(=O)oc2cc3oc4c(c3cc12)CCCC4`, the IC50 was 0.27 µM.

For the compound `Cc1ccc(-c2cc(C(=O)NCCCN3CCOCC3)no2)cc1`, the IC50 is 11.5 µM.

As for `Fc1ccc(C2=Nn3c(nnc3-c3n[nH]c4c3CCC4)SC2)cc1`, the IC50 was 34.6 µM (inactive).

As to `CCn1c(=O)c2cc(C(=O)NCc3cccs3)sc2c2ccccc21`, the IC50 is > 80 µM (inactive).

Regarding `CCN(CC)CCCN=Cc1c(-c2ccccc2)[nH]n(-c2nc3ccccc3s2)c1=O`, the IC50 was 17.9 µM.

For the compound `COc1cc(OC)c(/C=N/NC(N)=S)cc1Br`, the IC50 is 34.2 µM (inactive).

Take `Cc1ccc(C)c(OCc2ccc(C(=O)NN)o2)c1`: the IC50 is > 80 µM (inactive).

Turning to `O=C(NCCC1CCCCN1S(=O)(=O)c1ccc(Cl)cc1)C(=O)NCc1ccncc1` (stereo not given), the IC50 was 4.22 µM.

In the case of `COc1ccc(-n2nnnc2S(=O)(=O)CC(=O)N2CCCCC2)cc1`, the IC50 was 0.79 µM.

As to `CC1=CC(C)(C)Nc2ccc(OC(=O)c3cccnc3)cc21`, the IC50 is 14.3 µM.

Regarding `CCOC(=O)c1sc(NC(=O)c2cc(-c3ccccc3C)nc3ccccc23)c(C#N)c1C`, the IC50 was 19.3 µM.

For `CCc1ccc(/C=C2/SC(=S)N(CCC(=O)Nc3cccc(C(=O)O)c3)C2=O)cc1`, the IC50 was > 80 µM (inactive).

Consider `COc1ccc(/C=C2\SC(=S)N(CCC(=O)Nc3ccc(C(=O)O)cc3)C2=O)cc1`, for which the IC50 was > 80 µM (inactive).

Take `COc1cc(-c2nc3ccc(N4CCN(C)CC4)cc3[nH]2)cc(OC)c1OC`: the IC50 is > 80 µM (inactive).

On to `O=C(CCCN1C(=O)/C(=C/c2ccccc2Cl)SC1=S)Nc1cccnc1`, for which the IC50 was 1.75 µM.

Take `CC1CCN(C(=O)CCCOc2cc(=O)n(C)c3ccccc23)CC1`: the IC50 was > 80 µM (inactive).

Take `COc1cccc(N2CCN(c3ncnc4c3[nH]c3ccc(F)cc34)CC2C)c1` (stereo not given): the IC50 was 0.79 µM.

`COC(=O)c1cc(NC(=O)Nc2cc(OC)ccc2OC)cc(C(=O)OC)c1`: the IC50 was > 80 µM (inactive).

For the compound `Cc1noc(C)c1CSc1nc2[nH]ncc2c(=O)n1-c1ccccc1`, the IC50 was > 80 µM (inactive).

For the compound `O=C(CCCN1C(=O)/C(=C/c2ccccc2Cl)SC1=S)NNC(=O)c1ccncc1`, the IC50 was 25.7 µM (inactive).

Regarding `CN1CCN(C(=O)c2ccccc2N(Cc2ccccc2)S(=O)(=O)c2ccccc2)CC1`, the IC50 is 29.2 µM (inactive).

With `Cc1c(CCO)c(=O)oc2n[nH]c(-c3ccccc3)c12`, the IC50 was 13.8 µM.

For `O=C1NC[C@H](c2ccccc2)OC(=O)[C@@H](Cc2ccc(F)cc2)C/C=C\C[C@H]1CC(=O)N(CCO)Cc1ccccc1`, the IC50 is 9.87 µM.

As for `CC1(C)CC2CC(C)(CN2S(=O)(=O)c2ccc(C(=O)Nc3ccc(S(=O)(=O)N4CCOCC4)cc3)cc2)C1` (stereo not given), the IC50 is > 80 µM (inactive).

Take `COc1ccc(C(=O)Nc2nnc(SCC(=O)Nc3ccc(NC(C)=O)cc3)s2)c(OC)c1`: the IC50 was > 80 µM (inactive).

On to `COc1ccc(C(=O)Nc2ccc(OC)c([N+](=O)[O-])c2)cc1Br`, for which the IC50 is > 80 µM (inactive).

Turning to `COc1cc(Br)c(C(=O)c2nccc3cc(OC)c(OC)cc23)cc1OC`, the IC50 was > 80 µM (inactive).

For the compound `CCc1ccc(/C=C2\SC(=S)N(CCC(=O)NC3=NCCS3)C2=O)cc1`, the IC50 is 12.4 µM.

As to `CCc1ccc2[nH]c3nc(N/N=C/c4cccc(O)c4)nnc3c2c1`, the IC50 was > 80 µM (inactive).

`CCN(CC)c1ccc2cc(NC(=O)CCC(=O)O)c(=O)oc2c1`: the IC50 is 1.23 µM.

With `COc1cc(-c2[nH]nc3c2C(c2ccco2)C(C#N)=C(N)O3)cc(OC)c1OC` (stereo not given), the IC50 was > 80 µM (inactive).

As for `COC(=O)C(C)Oc1cc(C)cc2oc(=O)c3c(c12)CCC3` (stereo not given), the IC50 is 58 µM (inactive).

For `Cc1ccc(/C=C2\SC(=S)N(CCCC(=O)Nc3ccccn3)C2=O)cc1`, the IC50 is 0.37 µM.

Regarding `CCOc1ccc(-c2cc(CCCC(=O)NCc3ccc(C)cc3)no2)cc1`, the IC50 was > 80 µM (inactive).

`CCOc1ccc(-c2nc(CSCC(=O)NC3CC3)c(C)o2)cc1`: the IC50 is 0.28 µM.

Consider `CNC(=O)CCc1nc(-c2ccc(C(C)(C)C)cc2)no1`, for which the IC50 is under 0.16 µM.

For `O=C(NNC(=O)C12CC3CC(CC(C3)C1)C2)c1cccc(O)c1`, the IC50 was 16.5 µM.

Regarding `CCNc1nc(C)c2cc(Br)c(=O)n(CC)c2n1`, the IC50 was 1.48 µM.

For the compound `Cc1cnc(NC(=O)Nc2ccc(Cl)cc2)s1`, the IC50 is > 80 µM (inactive).

In the case of `O=C1CCCc2c1[nH]c1ccc(CN3CCCCC3)cc21`, the IC50 is > 80 µM (inactive).

For the compound `CCn1c(=O)cc(SCC(=O)N2CCOCC2)c2ccccc21`, the IC50 is > 80 µM (inactive).

In the case of `O=C1CCC2S/C(=C/Nc3ccc(C(F)(F)F)cc3)C(=O)N12` (stereo not given), the IC50 is 0.93 µM.

In the case of `Cc1ccc(Nc2nc(N/N=C\c3ccc4c(c3)OCO4)nc(N3CCOCC3)n2)cc1`, the IC50 was 3.11 µM.

As for `C=CCOc1ccc(NC(=O)C(=O)NCCCn2ccnc2)cc1`, the IC50 was > 80 µM (inactive).

As for `O=C(CN1C(=O)c2ccccc2S1(=O)=O)c1ccc(OC(F)F)cc1`, the IC50 is 1.83 µM.

Turning to `Cc1cc(C)cc(NC(=O)c2nnn(Cc3cc(C)ccc3C)c2N)c1`, the IC50 was > 80 µM (inactive).

For the compound `COc1ccc(-c2ccc(N(C)C)cc2)cc1[C@H]1[C@H]2C=CC[C@@H](C)[C@@H]2C(=O)N1Cc1ccccc1`, the IC50 was > 80 µM (inactive).

Turning to `Cc1ccc(-c2nc(C(=O)NCC3CCCO3)cc3c2[nH]c2ccccc23)cc1` (stereo not given), the IC50 was 12.8 µM.

`Cc1nc2cc(-c3ccc(Cl)cc3)nn2c(C)c1CCC(=O)NCc1ccco1`: the IC50 is > 80 µM (inactive).
